Results on 31 molecules are retold here after patent publication US11472788B2, “Benzoimidazoles as selective inhibitors of indoleamine 2,3-dioxygenases” (BEIGENE, LTD., priority 2017, dated 2022).

cellular IDO1 in HeLa cells, sequence (P14902 whole entry): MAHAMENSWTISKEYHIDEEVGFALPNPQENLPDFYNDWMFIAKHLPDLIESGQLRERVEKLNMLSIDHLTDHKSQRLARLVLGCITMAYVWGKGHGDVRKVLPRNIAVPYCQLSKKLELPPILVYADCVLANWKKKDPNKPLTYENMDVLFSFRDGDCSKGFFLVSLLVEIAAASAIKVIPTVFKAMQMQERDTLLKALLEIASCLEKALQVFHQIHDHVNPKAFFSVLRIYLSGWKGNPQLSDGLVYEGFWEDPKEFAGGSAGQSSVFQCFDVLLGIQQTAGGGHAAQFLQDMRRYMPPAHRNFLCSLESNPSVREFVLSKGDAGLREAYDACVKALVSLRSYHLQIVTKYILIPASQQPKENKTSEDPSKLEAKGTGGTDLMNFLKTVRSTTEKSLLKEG

For this assay, the target named is cellular IDO1 in HeLa cells (Homo sapiens (Human), UniProt P14902). Kind of assay: HeLa Cell-Based IDO1 Kyn (Kynurenine) Production Assay. The settings on record: IFN-γ induced IDO1, 48 hours incubation, Kyn absorbance at 480 nm. As for the experimental part: HeLa Cell-Based IDO1 Kyn (Kynurenine) Production Assay:
The inhibitory activity of IDO1 inhibitors is determined by using a colorimetric reaction to measure Kyn generated from L-Trp (L-Tryptophon) oxidation by cellular IDO1 in HeLa cells after induction of IDO1 expression by IFN-γ.
Hela cells were obtained from the American Type Culture Collection and recovered in 10% FBS-containing phenol red-free DMEM medium. Cells were plated onto a 96-well plate (100 μl/well) at 8000 cells per well and kept at 37° C. in a humidified incubator supplied with 5% CO2. 4 hours later, Human recombinant IFN-γ (8901SC, CST) was added to cells (final concentration 100 ng/mL) to stimulate endogenous IDOL. Compounds at different concentrations diluted in dimethylsulfoxide (DMSO) were added simultaneously with IFN-γ and 0.4 mM L-Trp. Cells were kept at 37° C. in a humidified incubator supplied with 5% CO2. After 48 hours of incubation, 100 μl supernatant from each well was removed to a new plate. The protein in the medium was precipitated with the addition of 8 μl 6N trichloroacetic acid. The plate was incubated at 60° C. for 30 minutes and then centrifugation at 2500 rpm for 10 minutes to remove sediments. 80 μl supernatants were carefully removed to a new clean plate and added with an equal volume of 2% 4-(Dimethylamino)benzaldehyde (D2004, sigma) dissolved in glacial acetic acid. The absorbance at 480 nm wavelength derived from Kyn was measured using a PHERAstar FS plate reader (BMG LABTECH). The IC5C for each compound was derived from fitting the dose-response data to the four-parameter logistic model by using XLfit software (IDBS).
Consider `Fc1ccc2nccc([C@H]3CC[C@@H](Cc4nc5cc(C(F)(F)F)ccc5[nH]4)CC3)c2c1` [Example A3b, 6-fluoro-4-((1r,4r)-4-((5-(trifluoromethyl)-1H-benzo[d]imidazol-2-yl)methyl)cyclohexyl)quinoline], for which the response was half-maximal at 6.8 nM (EC50).

`CC(C)c1ccc2[nH]c(C[C@H]3CC[C@H](c4ccnc5ccc(F)cc54)CC3)nc2c1` [Example A5a, 6-fluoro-4-((1r,4r)-4-((5-isopropyl-1H-benzo[d]imidazol-2-yl)methyl)cyclohexyl)quinoline]: the EC50 (as a rule, the concentration giving half of the maximal effect) was 184 nM.

In the case of `CC(C)c1ccc2[nH]c(C[C@H]3CC[C@@H](c4ccnc5ccc(F)cc54)CC3)nc2c1` [Example A5b, 6-fluoro-4-((1s,4s)-4-((5-isopropyl-1H-benzo[d]imidazol-2-yl)methyl)cyclohexyl)quinoline], the midpoint of the response, the EC50, lay at 23 nM.

For `Fc1ccc2nccc([C@H]3CC[C@H](Cc4nc5cc6c(cc5[nH]4)OCO6)CC3)c2c1` [Example A7a, 6-(((1r,4r)-4-(6-fluoroquinolin-4-yl)cyclohexyl)methyl)-5H-[1,3]dioxolo[4′,5′:4,5]benzo[1,2-d]imidazole], the half-maximal effective concentration (EC50) is 87 nM.

The molecule `Fc1ccc2nccc([C@H]3CC[C@@H](Cc4nc5cc6c(cc5[nH]4)OCO6)CC3)c2c1` [Example A7b, 6-(((1s,4s)-4-(6-fluoroquinolin-4-yl)cyclohexyl)methyl)-5H-[1,3]dioxolo[4′,5′:4,5]benzo[1,2-d]imidazole] came in with an EC50 of 3.6 nM.

Regarding `Fc1ccc2nccc([C@H]3CC[C@H](Cc4nc5cc(OC6CC6)ccc5[nH]4)CC3)c2c1` [Example A8a, 4-((1r,4r)-4-((5-cyclopropoxy-1H-benzo[d]imidazol-2-yl)methyl)cyclohexyl)-6-fluoroquinoline], the response was half-maximal at 528 nM (EC50).

Molecule `Fc1ccc2nccc([C@H]3CC[C@@H](Cc4nc5cc(OC6CC6)ccc5[nH]4)CC3)c2c1` [Example A8b, 4-((1s,4s)-4-((5-cyclopropoxy-1H-benzo[d]imidazol-2-yl)methyl)cyclohexyl)-6-fluoroquinoline] came in with an EC50 of 50 nM.

`Cc1c(Br)ccc2[nH]c(C[C@H]3CC[C@H](c4ccnc5ccc(F)cc54)CC3)nc12` [Example A11a, 4-((1r,4r)-4-((5-bromo-4-methyl-1H-benzo[d]imidazol-2-yl)methyl)cyclohexyl)-6-fluoroquinoline] showed an EC50 of 135 nM.

`Cc1c(Br)ccc2[nH]c(C[C@H]3CC[C@@H](c4ccnc5ccc(F)cc54)CC3)nc12` [Example A11b, 4-((1s,4s)-4-((5-bromo-4-methyl-1H-benzo[d]imidazol-2-yl)methyl)cyclohexyl)-6-fluoroquinoline] displayed an EC50 of 14 nM.

In the case of `Fc1ccc2nccc(C3CCC(Cc4nc5cc(CN6CCCCC6)ccc5[nH]4)CC3)c2c1` (stereo not shown) [Example A15, 6-fluoro-4-(4-((5-(piperidin-1-ylmethyl)-1H-benzo[d]imidazol-2-yl)methyl)cyclohexyl)quinoline], the EC50 was determined as 1950 nM.

In the case of `Fc1ccc2nccc(C3CCC(Cc4nc5cc(N6CCCCC6)c(Br)cc5[nH]4)CC3)c2c1` (stereo not shown) [Example A16, 4-(4-((6-bromo-5-(piperidin-1-yl)-1H-benzo[d]imidazol-2-yl)methyl)cyclohexyl)-6-fluoroquinoline], the response was half-maximal at 251 nM (EC50).

On to `COc1cc2nc(CC3CCC(c4ccnc5ccc(F)cc45)CC3)[nH]c2cc1Br` (stereo not shown) [Example A17, 4-(4-((6-bromo-5-methoxy-1H-benzo[d]imidazol-2-yl)methyl)cyclohexyl)-6-fluoroquinoline], for which a half-maximal effect (EC50) was put at 5 nM.

`Fc1ccc(C2CCC(Cc3nc4cc(Cl)ccc4[nH]3)CC2)c2ncccc12` (stereo not shown) [Example A24, 8-(4-((5-chloro-1H-benzo[d]imidazol-2-yl)methyl)cyclohexyl)-5-fluoroquinoline] came in with a half-maximal effective concentration (EC50) of 158 nM.

In turn, `Fc1ccc(C2CCC(Cc3nc4cc(C5CC5)ccc4[nH]3)CC2)c2cccnc12` (stereo not shown) [Example A25, 5-(4-((5-cyclopropyl-1H-benzo[d]imidazol-2-yl)methyl)cyclohexyl)-8-fluoroquinoline] registered an EC50 of 268 nM.

Molecule `Fc1cc2nc(C[C@H]3CC[C@H](c4ccc(F)c5ncccc54)CC3)[nH]c2cc1F` [Example A26a, 5-((1r,4r)-4-((5,6-difluoro-1H-benzo[d]imidazol-2-yl)methyl)cyclohexyl)-8-fluoroquinoline] showed an EC50 of 466 nM.

`Fc1cc2nc(C[C@H]3CC[C@@H](c4ccc(F)c5ncccc54)CC3)[nH]c2cc1F` [Example A26b, 5-((1s,4s)-4-((5,6-difluoro-1H-benzo[d]imidazol-2-yl)methyl)cyclohexyl)-8-fluoroquinoline] gave an EC50 of 205 nM.

`Clc1ccc2[nH]c(CC3CCC(c4ccncc4)CC3)nc2c1` (stereo not shown) [Example A28, 5-chloro-2-((4-(pyridin-4-yl)cyclohexyl)methyl)-1H-benzo[d]imidazole] came in with an EC50 of 1810 nM.

Turning to `FC(F)(F)c1cc(C2CCC(Cc3nc4cc(Cl)ccc4[nH]3)CC2)ccn1` (stereo not shown) [Example A29, 5-chloro-2-((4-(2-(trifluoromethyl)pyridin-4-yl)cyclohexyl)methyl)-1H-benzo[d]imidazole], the EC50 was 179 nM.

In the case of `c1ccc(C2CCC(Cc3nc4cc(C5CC5)ccc4[nH]3)CC2)cc1` (stereo not shown) [Example A31, 5-cyclopropyl-2-((4-phenylcyclohexyl)methyl)-1H-benzo[d]imidazole], the EC50 amounted to 115 nM.

As to `Clc1ccc2[nH]c(C3C4CCC(c5ccccc5)CC43)nc2c1` (stereo not shown) [Example A36, 5-chloro-2-(3-phenylbicyclo[4.1.0]heptan-7-yl)-1H-benzo[d]imidazole], the EC50 was found to be 1670 nM.

As to `Fc1ccc2nccc(C3CCN(Cc4nc5cc(Cl)ccc5[nH]4)CC3)c2c1` [Example A39, 4-(1-((5-chloro-1H-benzo[d]imidazol-2-yl)methyl)piperidin-4-yl)-6-fluoroquinoline], the EC50 stood at 150 nM.

In turn, `C[C@H](c1nc2cc(F)c(F)cc2[nH]1)[C@H]1CC[C@@H](c2ccnc3ccc(F)cc32)CC1` [Example B1b, 4-((1R,4s)-4-((S)-1-(5,6-difluoro-1H-benzo[d]imidazol-2-yl)ethyl)cyclohexyl)-6-fluoroquinoline] displayed an EC50 of 59 nM.

`C[C@@H](c1nc2cc(Cl)c(F)cc2[nH]1)[C@H]1CC[C@@H](c2ccnc3ccc(F)cc32)CC1` [Example B2, 4-((1S,4s)-4-((R)-1-(5-chloro-6-fluoro-1H-benzo[d]imidazol-2-yl)ethyl)cyclohexyl)-6-fluoroquinoline] registered an EC50 of 0.95 nM.

For the molecule `C[C@@H](c1nc2cc(Cl)c(F)cc2[nH]1)[C@H]1CC[C@@H](c2ccnc3ccc(F)cc32)CC1` [Example B2a, 4-((1R,4s)-4-((S)-1-(5-chloro-6-fluoro-1H-benzo[d]imidazol-2-yl)ethyl)cyclohexyl)-6-fluoroquinoline], the midpoint of the response, the EC50, lay at 0.38 nM.

In the case of `C[C@H](c1nc2cc(Cl)c(F)cc2[nH]1)[C@H]1CC[C@@H](c2ccnc3ccc(F)cc32)CC1` [Example B2b, 4-((1S,4s)-4-((R)-1-(5-chloro-6-fluoro-1H-benzo[d]imidazol-2-yl)ethyl)cyclohexyl)-6-fluoroquinoline], the EC50 was determined as 50 nM.

In the case of `COC(=O)c1ccc2[nH]c(C(C)C3CCC(c4ccnc5ccc(F)cc45)CC3)nc2c1` (stereo not shown) [Example B3, methyl 2-(1-(4-(6-fluoroquinolin-4-yl)cyclohexyl)ethyl)-1H-benzo[d]imidazole-5-carboxylate], the EC50 stood at 1.3 nM.

With `COC(=O)c1ccc2[nH]c([C@@H](C)[C@H]3CC[C@@H](c4ccnc5ccc(F)cc54)CC3)nc2c1` [Example B3a, methyl 2-((S)-1-((1s,4R)-4-(6-fluoroquinolin-4-yl)cyclohexyl)ethyl)-1H-benzo[d]imidazole-5-carboxylate], the EC50 came out at 0.55 nM.

In turn, `COC(=O)c1ccc2[nH]c([C@H](C)[C@H]3CC[C@@H](c4ccnc5ccc(F)cc54)CC3)nc2c1` [Example B3b, methyl 2-((R)-1-((1s,4S)-4-(6-fluoroquinolin-4-yl)cyclohexyl)ethyl)-1H-benzo[d]imidazole-5-carboxylate] showed a 50% effective concentration (EC50) of 81 nM.

Regarding `C[C@@H](c1nc2cc(C(F)(F)F)ccc2[nH]1)[C@H]1CC[C@@H](c2ccnc3ccc(F)cc32)CC1` [Example B4, 6-fluoro-4-((1S,4s)-4-((R)-1-(5-(trifluoromethyl)-1H-benzo[d]imidazol-2-yl)ethyl)cyclohexyl)quinoline], it took 1.4 nM to reach a half-maximal effect (EC50).

In turn, `C[C@@H](c1nc2c(F)cc(F)c(F)c2[nH]1)[C@H]1CC[C@@H](c2ccnc3ccc(F)cc32)CC1` [Example B5, 6-fluoro-4-((1S,4s)-4-((R)-1-(4,6,7-trifluoro-1H-benzo[d]imidazol-2-yl)ethyl)cyclohexyl)quinoline] returned an EC50 of 1.4 nM.

`C[C@H](c1nc2ccc(C#N)cc2[nH]1)[C@H]1CC[C@@H](c2ccnc3ccc(F)cc32)CC1` [Example B8, 2-((S)-1-((1s,4R)-4-(6-fluoroquinolin-4-yl)cyclohexyl)ethyl)-1H-benzo[d]imidazole-6-carbonitrile] showed a concentration for a half-maximal effect (EC50) of 6.9 nM.
